The test system of series [1] is HCV. The settings on record: read-out: EC50 against HCV; cited from earlier work.
Series [2] concerns YFV-17D. Description: microbe, parasite or virus in culture. In kind it is cell-based. The following applies: Yellow fever virus, Macrophage, 72 h; for EC50: read-out: Anti-YFV-17D activity MDM EC50; for EC90: read-out: Anti-YFV-17D activity MDM EC90.
The nature of series [3]: in vitro. The settings on record: African green monkey.
For series [4], the system named is Japanese encephalitis virus (JEV). The settings on record: read-out: EC50 against Japanese encephalitis virus; cited from earlier work.
Series [5] relates to dengue virus (DENV). The settings on record: read-out: EC50 against dengue virus; cited from earlier work.
Series [6] deals with Zika virus (ZIKV). The following applies: read-out: EC50 against Zika virus; cited from earlier work.
Series [7] relates to clinical YFV isolate (WT306). The settings on record: mouse, in vivo, 10 mg/kg.
Series [8] relates to YFV-17D. Description: microbe, parasite or virus in culture. In kind it is cell-based. The following applies: Yellow fever virus; for EC90: read-out: Anti-YFV-17D activity Huh-7 EC90.
Series [9] relates to YFV-17DD. The settings on record: mouse, in vivo.
In series [10] the test system is YFV-17D. The series is described as follows: microbe, parasite or virus in culture. In kind it is cell-based. The settings on record: Yellow fever virus, Huh-7, 72 h; for EC50: read-out: Anti-YFV-17D activity 3D spheroids EC50; for EC90: read-out: Anti-YFV-17D activity 3D spheroids EC90.
For series [11], the system named is Huh-7 cells. The series is described as follows: cells. The settings on record: Homo sapiens, Huh-7, 336 h.
In series [12] the test system is YFV-DakH1279. The series is described as follows: microbe, parasite or virus in culture. In kind it is cell-based, Yellow fever virus. The following applies: for EC50 / EC90: Yellow fever virus, Huh-7, 48 h; for EC50: read-out: Anti-YFV-DakH1279 EC50 (reduction in infectious virus); for EC90: read-out: Anti-YFV-DakH1279 EC90 (reduction in infectious virus).
The subject of series [13] is YFV-17D. The series is described as follows: microbe, parasite or virus in culture. The following applies: Yellow fever virus, Huh-7, 72 h; for EC50: read-out: Anti-YFV-17D EC50 (reduction in infectious virus); for EC90: read-out: Anti-YFV-17D EC90 (reduction in infectious virus). In kind it is cell-based.
For series [14] the following is noted: rat, in vivo; cited from earlier work.
Series [15] has as its system cell lines. The settings on record: cited from earlier work.
The subject of series [16] is YFV. The settings on record: cited from earlier work.
Series [17] relates to YFV. The settings on record: mouse, in vivo; cited from earlier work.
Series [18] can be described thus: in vitro. The settings on record: human.
Series [19] can be described thus: in vitro. The settings on record: human. The source holds these as a separate data set.
Series [20] in a line: in vitro. The following applies: human. This is another data set of the same source.
For series [21], the system named is YFV-17DD. The following applies: mouse, in vivo; cited from earlier work.
[22] abbreviates: Huh-7, 72 h, read-out: Anti-YFV-17D activity Huh-7 EC50.
Where [23] appears, read: read-out: Mitotoxicity (Huh-7) IC50 MtDNA.
[24] abbreviates: read-out: Mitotoxicity (Huh-7) IC50 nDNA.

Where “and” joins values, the source holds several entries; their conditions need not be identical. Equal values may be shown once. Read-outs that look alike come from different tables or passages of the source. A value given as a limit tells only on which side of the number the result lay.

One may read the EC50 as the concentration that produces a half-maximal response. What is called EC90 is the point of the concentration-response curve where the effect stands at 90%. For orientation: IC50 means the point on the concentration scale where inhibition reaches its midpoint. Regarding `C[C@@]1(O)[C@H](O)[C@@H](CO)O[C@H]1n1cc(F)c2c(N)ncnc21` [DFA, 7-deaza-7-fluoro-2′-C-methyladenosine], the EC50 in [1] is 70 to 900 nM. In addition, in series [2], the EC50 stood at 500 ± 400 nM and the EC90 amounted to 1000 ± 600 nM. The CC50 in series [3] was found to be 92400 ± 8100 nM. In series [4], the concentration giving a half-maximal response (EC50) was 900 nM. The EC50 in series [5] was 500 to 1000 nM. For the same compound, the EC50 in series [6] was 3700 nM. In addition, in series [7], the ALT levels entry is given as “markedly reduced”, the “YFV-mediated liver pathology (histology)” value is “significantly reduced”, the “clinical severity (clinical disease score)” value was “modest but significant decrease” and the “leukocytosis (total circulating leukocytes)” value is on record as “significantly reduced”. In addition, in [7], the “total portion of granulocytes in the blood” value is recorded as “significantly reduced”; the “virus replication in the liver, infectious virions (plaque assay)” value is “significantly reduced”; the “virus replication in the liver, total genome copy numbers” value is given as “significantly reduced”. The 50% effective concentration (EC50) in [8] (setting [22]) is 900 ± 600 nM. Also, the EC90 in series [8] (Huh-7, 72 h) came to 3400 ± 500 nM. Also, the 50% effective concentration (EC50) in [8] (Huh-7, read-out: EC50 against YFV-17D in vitro (summary range)) is 900 to 5500 nM. Also, in series [9], the body weight entry is “no significant changes”; the “inflammatory cell infiltration, infiltrate score” value is reported as ~ 1; the “total white blood cell numbers” value is recorded as “no significant changes”. Moreover, in series [9] (10 mg/kg), the ALT levels result was “significantly reduced”, the “YFV-17DD replication in the livers (qRT-PCR)” value was “significantly reduced”, the “liver pathology by histopathological analysis” value was “reduced liver pathology” and the overall health status entry is “no notable impact”. In series [10], the half-maximal effective concentration (EC50) came out at 5500 ± 1300 nM and the EC90 was 12600 ± 1900 nM. For the same compound, the concentration for half-maximal inhibition (IC50) in [11] (setting [23]) was more than 50000 nM. Also, the half-maximal inhibitory concentration (IC50) in [11] (setting [24]) was more than 50000 nM. In series [12], the half-maximal effective concentration (EC50) worked out at 2400 ± 1900 nM and the 90% effect concentration (EC90) was determined as 5000 ± 3100 nM. Moreover, in series [13], the EC50 was 800 ± 400 nM and the EC90 stood at 5600 ± 2600 nM. In addition, in [14], the pharmacokinetic profile result is recorded as “favorable pharmacokinetic profile”. Further, the “cytotoxicity CC50” value in series [15] was >100–>200.

For the compound `Nc1ncnc2c([C@@H]3N[C@H](CO)[C@@H](O)[C@H]3O)c[nH]c12` [Galidesivir], the “activity against YFV in vitro” value in series [16] was “active”.

On to `CC(C)OC(=O)[C@H](C)N[P@](=O)(OC[C@H]1O[C@@H](n2ccc(=O)[nH]c2=O)[C@](C)(F)[C@@H]1O)Oc1ccccc1` [Sofosbuvir], for which, in series [17], the “efficacy against YFV in mice” value is reported as “little efficacy”. The EC50 in series [2] turned out to be 1000 ± 700 nM; in series [8] (setting [22]), 600 ± 600 nM; in [12], 1600 ± 1300 nM; in [13], 300 ± 100 nM. For the same compound, the EC90 in series [2] stood at 2400 ± 1500 nM; in [8] (Huh-7, 72 h) it was 3000 ± 2500 nM; in [12] it was 3100 ± 2400 nM; in series [13] it was 1200 ± 100 nM. Moreover, the CC50 in [18] was more than 100000 nM; in series [3] it was more than 100000 nM; in series [19] it was 85600 ± 11600 nM; in series [20] it was more than 100000 nM. Further, the IC50 in [11] (setting [23]) and in series [11] (setting [24]) was more than 50000 nM each time. Moreover, in series [12], the “Average infectious YFV yield, YFV-DakH1279” value was 2.7x10^4 ± 1.1x10^4 FFU/mL and 1.4x10^4 ± 1.2x10^4 FFU/mL and 2.2x10^3 ± 1.2x10^3 FFU/mL and 1.8x10^2 ± 1.2x10^2 FFU/mL.

In the case of `CC(C)OC(=O)[C@H](C)N[P@](=O)(OC[C@H]1O[C@@H](n2ccc(=O)[nH]c2=O)[C@@](F)(Br)[C@@H]1O)Oc1ccccc1` [Compound 2-FBU], the EC50 in [2] was found to be 200 ± 100 nM; in series [8] (setting [22]), 900 ± 800 nM; in series [10], 2200 ± 200 nM; in [12] it was 1700 ± 1100 nM; in series [13] it was 1200 ± 500 nM. Further, the EC90 in series [2] was 3000 ± 1600 nM; in series [8] (Huh-7, 72 h), 8100 ± 3500 nM; in series [10] it was 7700 ± 300 nM; in series [12], 3500 ± 2300 nM; in [13], 8600 ± 3100 nM. The CC50 in [3] was more than 100000 nM. Further, in [21], the “log reduction in YFV genome copies in the liver tissue” value is 0.7 log. Also, in [21], the “percent reduction in YFV genome copies in the liver tissue” value is listed as ~ 80%. Besides, the concentration for half-maximal inhibition (IC50) in series [11] (setting [23]) is 40900 nM; in series [11] (setting [24]), more than 50000 nM. For the same compound, in [12], the “Average infectious YFV yield, YFV-DakH1279” value was 4.0x10^4 ± 6.1x10^3 FFU/mL and 2.4x10^4 ± 9.8x10^3 FFU/mL and 3.3x10^3 ± 2.4x10^3 FFU/mL and 2.8x10^2 ± 1.7x10^2 FFU/mL. In addition, the “cytotoxicity CC50” value in [15] is on record as 68.9–>100.
